In paper PMC12428237, “Study on the Calcium Transport-Promoting Property and Mechanism of the Peptide–Calcium Complex DEEENDQVK–Ca Based on a Caco-2 Monolayer Model” (Foods, 2025):

Tests used:
Assay type in all cases: cell-based, human
[1] = system: Caco-2 monolayer; experiment: Calcium transport channel assay with channel regulators; details: then 2 mg/mL sample, 120 min, 37 °C, n = 3
Experimental: Before the calcium transport channel assay, 0.5 mL of HBSS buffer containing different channel regulators was added to the AP sides of the Transwell chambers. These channel regulators included 2-APB (25 μmol/L) as a calcium channel inhibitor of TRPV6, cytochalasin D (0.5 μmol/ mL) as a paracellular channel promoter, and mβCD (3 mmol/L) as an endocytic channel inhibitor. The group without the added channel regulator served as the control group. The BL side received a 1.5 mL HBSS buffer. Following 30 min incubation, solutions were removed from both sides. The AP side was then loaded with 0.5 mL of either DK–Ca (2 mg/mL) or 2 mg/mL DK + 7.5 mM CaCl2 solution, while the BL side received 1.5 mL HBSS. After 120 min incubation at 37 °C and 5% CO2, the BL solution was collected for calcium transport analysis.

[2] = system: Caco-2 monolayer; experiment: Fluo-4 AM fluorescence imaging of intracellular calcium influx; details: samples containing 150 μg/mL calcium, 24 h, Fluo-4 AM 4 μmol/L, confocal microscope
Experimental: Fluorescence imaging based on intracellular calcium influx was conducted to assess the calcium transport-promoting effect in the Caco-2 monolayer following the method of Men et al.. Log-phase cells were seeded at 1.5 × 10^5 cells/well in 35 mm laser confocal dishes and gently agitated to ensure uniform distribution. Cultures were maintained at 37 °C in 5% CO2 with daily medium replacement until confluent monolayers formed. Subsequently, CaCl2, DK + CaCl2, and DK–Ca solutions (each containing 150 μg/mL calcium) were added separately. The group without an added sample served as the control group. Following 24 h of incubation, the cells were washed thrice with prewarmed calcium-/magnesium-free HBSS buffer (pH 7.2). Under light-protected conditions, 200 µL of Fluo-4 AM (4 μmol/L) was applied to cover the cells. Following 30 min incubation at 37 °C and subsequent washes, cells were dark-adapted for 10 min at room temperature for de-esterification. Imaging was conducted using a confocal microscope (excitation at 496 nm, Zeiss LSM980 Airyscan2, Carl Zeiss, Germany ), followed by quantification of the fluorescence intensity with ImageJ 1.54 g software.

[3] = system: TRPV6; experiment: RT-qPCR, TRPV6 mRNA expression; details: Caco-2 monolayer, 24 h, 2 mg/mL DK–Ca or 2 mg/mL DK + 7.5 mM CaCl2; normalized to GAPDH, 2^-ΔΔCt; n = 3
Experimental: (§1) The expression levels of genes related to calcium transport channels were determined following the method of Li et al.. After 21 days of establishing the Caco-2 monolayer model, the monolayers were treated for 24 h with a complete medium containing 2 mg/mL DK–Ca or 2 mg/mL DK + 7.5 mM CaCl2. The group without an added sample served as the control group. Subsequently, the monolayers were washed thrice with HBSS buffer before cell lysis using 200 μL RNAiso Plus. Total RNA was extracted, and first-strand cDNA synthesis was subsequently performed with the PrimeScript® RT reagent kit as per the kit manufacturer’s instructions. Using cDNA as a template, RT-qPCR was performed with gene-specific primers targeting TRPV6, calbindin-D9k, PMCA1b, occludin, and claudin-2. The standard procedure for PCR amplification was as follows: 95 °C for 30 s, followed by 40 cycles of 95 °C for 5 s, 60 °C for 30 s, and 72 °C for 1 min. Target gene expression level was normalized to GAPDH and calculated using the 2^^(-ΔΔCt) relative quantification method. In experimental groups, GAPDH served as the internal reference gene for normalization. All primer sequences used in this study are detailed in Table S1.

[4] = system: PMCA1b; experiment: RT-qPCR, PMCA1b mRNA expression; details: Caco-2 monolayer, 24 h, 2 mg/mL DK–Ca or 2 mg/mL DK + 7.5 mM CaCl2; normalized to GAPDH, 2^-ΔΔCt; n = 3
Experimental: as §1

[5] = system: claudin-2; experiment: RT-qPCR, claudin-2 mRNA expression; details: Caco-2 monolayer, 24 h, 2 mg/mL DK–Ca or 2 mg/mL DK + 7.5 mM CaCl2; normalized to GAPDH, 2^-ΔΔCt; n = 3
Experimental: as §1

## DEEENDQVK–Ca [DK–Ca, complex formed by chemically chelating DK with CaCl2]
[1]; 2-APB (25 μmol/L, TRPV6 inhibitor) pre-incubation 30 min on AP side
  reduction of transported calcium by 2-APB treatment compared to the control group: 43.94%
[1]; cytochalasin D (0.5 μmol/ mL, paracellular channel promoter) pre-incubation 30 min on AP side
  improvement of transported calcium by cytochalasin D treatment compared to the control group: 14.82%
[1]; mβCD (3 mmol/L, endocytic channel inhibitor) pre-incubation 30 min on AP side
  reduction of transported calcium by mβCD treatment compared to the control group: 12.35%
[2]
  fluorescence intensity (intracellular calcium influx) compared to the control group: significantly increased
[3]
  TRPV6 mRNA expression, upregulation compared to the untreated control group: 2.70 fold
[4]
  PMCA1b mRNA expression, upregulation compared to the untreated control group: 2.17 fold
[5]
  claudin-2 mRNA expression, upregulation compared to the control group: 1.50 fold
